Measured values as given in PubChem BioAssay AID1418 (Emory University Molecular Libraries Screening Center, 2008).
Activity calls are given as the source filed them. The rule behind the calls is not given here.

Target: Induced myeloid leukemia cell differentiation protein Mcl-1 (Homo sapiens) (UniProt Q07820)
Experiment: blockers of Bid binding to Mcl-1 – biochemical, TR-FRET, dose response (AID 1418)
Details: Mcl-1/Bid peptide binding, TR-FRET (europium/Dy647), 2 hr

Induced myeloid leukemia cell differentiation protein Mcl-1 (Homo sapiens), sequence (Q07820 whole entry, looked up): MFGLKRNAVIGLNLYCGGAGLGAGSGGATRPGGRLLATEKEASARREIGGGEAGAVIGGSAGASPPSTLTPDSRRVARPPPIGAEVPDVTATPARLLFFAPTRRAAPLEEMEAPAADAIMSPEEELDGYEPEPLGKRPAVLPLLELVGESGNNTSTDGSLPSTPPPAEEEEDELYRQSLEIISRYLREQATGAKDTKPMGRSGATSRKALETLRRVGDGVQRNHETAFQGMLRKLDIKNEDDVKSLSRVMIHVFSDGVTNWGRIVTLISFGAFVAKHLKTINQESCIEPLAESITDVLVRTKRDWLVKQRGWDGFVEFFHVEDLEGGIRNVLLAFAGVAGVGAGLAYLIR

SMILES	IC50
CC1(C)CC(=O)C(C(c2cccnc2)C2C(=O)CC(C)(C)CC2=O)C(=O)C1	> 54 µM (inactive)
O=C(NC1CCCCC1)C(c1ccc2ncccc2c1)N(Cc1ccccc1)C(=O)c1ccc2c(c1)OCCO2 (stereo not given)	> 54 µM (inactive)
O=C1CSC(=S)N1/N=C/c1ccc(O)c(O)c1O	1.17 µM
O=C(CCS(=O)(=O)c1ccccc1)Nc1ccccc1-c1nc2ccccc2s1	> 54 µM (inactive)
COc1ccc(C(C)=O)cc1COc1ccc(Cl)cc1Cl	> 54 µM (inactive)
O=C(O)c1cc(-c2ccc(/C=C3/SC(=S)N(Cc4ccccc4)C3=O)o2)ccc1Cl	1.7 µM
CCOc1cc(C=C2C(=O)c3ccccc3C2=O)ccc1OCC(=O)Nc1ccc(C)cc1	1.2 µM
Cc1ccc(C(=O)NNC(=O)CCC(=O)Nc2cc(C)on2)cc1	> 54 µM (inactive)
CCCCOc1ccc(C(=O)NCCC(=O)NCCCC(=O)OCC)cc1	> 54 µM (inactive)
CCc1ccc(NC(=O)c2ccnc(C(C)(C)C)c2)cc1	> 54 µM (inactive)
CN(Cc1ccccc1)Cc1nc2c([nH]1)c(=O)[nH]c(=O)n2C	> 54 µM (inactive)
O=C(Nc1ccc(F)cc1)N1CCCN(c2ccc(C(F)(F)F)cn2)CC1	> 54 µM (inactive)
CCOC(=O)c1c(C)oc2cc(Br)c(OC(=O)N3CCOCC3)cc12	> 54 µM (inactive)
COc1ccc(-c2nc(-n3c(C)c(C(C)=O)c(C(C)=O)c3C)sc2C)cc1	> 54 µM (inactive)
O=C(COc1ccccc1)N1CCN(Cc2c[nH]c3ccccc23)CC1	> 54 µM (inactive)
COc1ccc(CN2C(=O)/C(=C/c3ccc(-c4ccc(Cl)c(C(=O)O)c4)o3)SC2=S)cc1	1.65 µM
C=CCC1(/C=N/O)CCOC(C)(C)C1 (stereo not given)	> 54 µM (inactive)
CC1(C)CC(=O)C2=C(C1)OC(N)=C(C#N)C2c1cccc(OC(=O)c2ccco2)c1 (stereo not given)	> 54 µM (inactive)
CN(CCO)S(=O)(=O)c1ccc2c(c1)C(=NO)c1cc(S(=O)(=O)N(C)CCO)ccc1-2	> 54 µM (inactive)
Cc1nc2c(c(=O)n1CCC1=CCCCC1)c1nc3ccccc3nc1n2/N=C/c1ccco1	> 54 µM (inactive)
CN(NC(=O)COc1ccccc1)c1ccccc1	> 54 µM (inactive)
COc1ccc2nc(NC(=O)c3cccc(-c4cc5ccccc5oc4=O)c3)sc2c1	0.89 µM
Cc1c(NC(=O)COC(=O)c2cc(-c3ccc(-c4ccccc4)cc3)nc3ccccc23)c(=O)n(-c2ccccc2)n1C	0.58 µM
O=C(NCc1nnc(SCC(=O)N2CCOCC2)o1)c1c(F)cccc1Cl	> 54 µM (inactive)

SMILES	IC50
O=C(O)c1cccc(N/N=C/C2=C(Cl)c3cc(Cl)ccc3SC2)c1	8.44 µM
O=C(N/N=C/c1ccco1)c1ccc(N2CCCC2=O)cc1	> 54 µM (inactive)
O=C(Cn1nnc(-c2ccccc2NC(=O)c2cccs2)n1)Nc1ccccc1	> 54 µM (inactive)
COC(=O)C(Cc1csc2ccc(Cl)cc12)NC(=O)c1ccc(Cl)cc1 (stereo not given)	> 54 µM (inactive)
O=C(C[n+]1cc(-c2ccccc2)n2c1CCC2)N1c2ccccc2Sc2ccccc21	> 54 µM (inactive)
CC1CCN(S(=O)(=O)c2cccc(C(=O)Nc3ccccn3)c2)CC1	> 54 µM (inactive)
COc1cccc(CN(C(=O)/C=C/c2ccc(Cl)cc2)C2CCS(=O)(=O)C2)c1 (stereo not given)	> 54 µM (inactive)
COc1ccccc1NC(=O)CSc1nnnn1-c1ccc2c(c1)OCO2	> 54 µM (inactive)
O=C(COC(=O)c1cc[n+]([O-])cc1)Nc1ccccc1Cl	> 54 µM (inactive)
O=C(Nc1ccc(S(=O)(=O)Nc2nccs2)cc1)c1cc(-c2ccccc2Cl)nc2ccccc12	> 54 µM (inactive)
COc1ccc(-c2cc3nc4ccccc4n3c(N)c2C#N)cc1	2.76 µM
CN1CCCCC1c1ccc(-c2cccnc2)nc1 (stereo not given)	inactive
C#CCOCCOCCOCCNc1nc(N2CCN(C(=O)[C@H](CCC(=O)O)n3cc(C(N)CC(C)C)nn3)CC2)nc(N2CCN(C(=O)[C@H](CCC(=O)O)n3cc(C(N)CC(C)C)nn3)CC2)n1 (stereo not given in full)	15.2 µM
C=CCn1c(O)c(N=NC(=O)CNC(=O)/C=C/c2ccc(OC)cc2)c2ccccc21	> 54 µM (inactive)
Cc1ccc(-n2cccc2/C=C2/C(=N)N3C(=NC2=O)SN=C3S(C)(=O)=O)cc1Cl	10.9 µM
CCCCCCCCCCCCCCCC[n+]1cccc2ccccc21	6.64 µM
CCCCN(C)C(=O)c1coc(=O)c2ccccc12	> 54 µM (inactive)
CC(/C=N\Nc1nnc2c(n1)[nH]c1c(C)cccc12)=C\c1ccco1	1.66 µM
Cc1ccc2nc(SC(C)C(=O)NC3CCCc4ccccc43)[nH]c2c1 (stereo not given)	> 54 µM (inactive)
O=[N+]([O-])c1cc(Cl)cc(/C=N\Nc2ccccn2)c1O	9.24 µM
COc1cccc(-n2c(SCc3ccccn3)nc3c(c2=O)SCC3)c1	> 54 µM (inactive)
Cc1ccccc1OCCNC(=O)CNC(=O)c1ccccc1O	> 54 µM (inactive)
CCCN(CCC)C(C(=O)Nc1cccc(OC)c1)c1ccccc1 (stereo not given)	> 54 µM (inactive)
c1ccc2c(c1)nnn2-c1ncnc2sc3c(c12)CCCC3	> 54 µM (inactive)

SMILES	IC50
COc1cc(-c2ccc(Nc3ccccc3C(=O)O)c(OC)c2)ccc1Nc1ccccc1C(=O)O	0.85 µM
CCOc1ccc2nc(N3C(=O)/C(=C/c4ccc(Cl)cc4)NC3=S)sc2c1	2.43 µM
O=C(Nc1cccc(-c2csc(-c3ccccc3)n2)c1)c1cccs1	> 54 µM (inactive)
Cc1ccc(S(=O)(=O)/N=C2/C=C(Sc3ncn[nH]3)C(=O)c3ccccc32)cc1	2.73 µM
Cc1nc(C)n(CC(O)COc2ccc3c(c2)CCC3)n1 (stereo not given)	> 54 µM (inactive)
CCOC(=O)c1cccc(NC(=O)CCNS(=O)(=O)c2ccc3c(c2)CCN3C(=O)CC)c1	> 54 µM (inactive)
NS(=O)(=O)c1cc2c(cc1Cl)NC(Cc1ccccc1)NS2(=O)=O (stereo not given)	> 54 µM (inactive)
O=C(/C=C/Nc1cccc(F)c1)c1ccco1	> 54 µM (inactive)
O=c1c2cnn(-c3ccccc3)c2nc(-c2cccs2)n1-c1cccc(Cl)c1	> 54 µM (inactive)
Cc1ccc(S(=O)(=O)N(C)CC(O)Cn2c3ccccc3c3ccccc32)cc1 (stereo not given)	> 54 µM (inactive)
CCCCSc1cc(C)nc(N)n1	> 54 µM (inactive)
COC(=O)c1c(C)[nH]c(C(=O)C(C)[N+]23CCN(CC2)CC3)c1C (stereo not given)	2.85 µM
CN(C)c1ccc(-c2nn3c(-c4ccc(Cl)cc4Cl)nnc3s2)cc1	0.77 µM
CC(=O)c1ccc(NC(=S)NNC(=O)c2ccncc2)cc1	> 54 µM (inactive)
CC(C)(C)CC(=O)O/N=C(\N)c1ccccn1	> 54 µM (inactive)
COC(=O)c1ccc(Oc2coc3cc(OCc4ccc([N+](=O)[O-])cc4)ccc3c2=O)cc1	> 54 µM (inactive)
CCOc1ccc(-c2nnc(-c3ccccc3)n2-c2ccccc2)cc1	inactive
CSc1nc(SCCO)c2sc3nc(-c4ccco4)c4c(c3c2n1)CC(C)(C)OC4	7.5 µM
COc1ccc(CCNC(=O)c2ccc(=O)[nH]n2)cc1OC	> 54 µM (inactive)
COc1cccc(N2CCN(C(=O)NC3CCCCC3)CC2)c1	> 54 µM (inactive)
CC(C)N(C(=O)c1sc2cc([N+](=O)[O-])ccc2c1Cl)C(C)C	> 54 µM (inactive)
O=c1cc(-c2ccccc2Cl)oc2c(NS(=O)(=O)c3cc(Cl)cc(Cl)c3O)ccc(O)c12	7.73 µM
